Assay results: patent US10986835B2, “Use of 9-tricosene to control Drosophila suzukii” (Globachem NV, priority 2016, dated 2021)

Tests used:
Drosophila suzukii [1] = experiment: Behavior assay: courtship behavior of wild type 4-day-old males towards perfumed flies; type: in vivo; conditions: compound in n-hexane painted onto abdomen; 4 tested conditions (perfumed 1-day-old females, 1-day-old males, 4-day-old females, 4-day-old males) paired with wild type 4-day-old males; filmed two hours; FIG. 1
Procedure: (§1) Drosophila suzukii adults were caught in the wild (Sint-Truiden, Limburg, Belgium). The flies were reared in quarantined facilities at 21° C. on Cornmeal-sucrose-yeast-agar medium.
(§2) All flies were collected within 12 hours of eclosing, after which they were used to make one-day-old samples or aged to four days old. The four-day-old socially nave flies were aged separated from the other sex, contrary to the socially experienced flies, which were aged, mixed with the other sex.
(§3) N-hexane (95%), n-heneicosane (98%), n-tricosane (98%), (Z)-7-tricosene (98%) and (Z)-9-tricosene (97%) were bought from Thermo-Fischer and Sigma Aldrich. (Z)-5-tricosene (99%) and 2-methyloctacosane (95%) were synthesized by a hired company, Ecosynth (Gent, Belgium). These compounds were dissolved in n-hexane (95%) and painted onto the abdomen of Drosophila suzukii flies using number 2 paintbrushes. The four-day-old flies were perfumed 24 hours prior to testing, one-day-old flies 1 hour prior to testing.
Behavior assays were performed in a room with regulated temperature (21° C.) and always at the same time (10 h30). The perfumed Drosophila suzukii flies were put individually with a wild type four-day-old Drosophila suzukii male in a circular arena (3 cm diameter). Every couple was filmed for two hours, due to the low activity rate of the species, using Sony Handycams CX240. Subsequently these videos were analyzed for courtship behavior and copulation based on Mazzoni et al. 2013 (Plos One 8(11): e80708). The behavioral data was analyzed using a contingency table and followed by t-tests, as well as one-way ANOVA tests for the continuous data.
Behavior experiments were performed as follows. Four different conditions of flies were perfumed: one-day-old females, one-day-old males, four-day-old females and four-day-old males. These perfumed flies were paired with wild type four-day-old males. Subjects were scored for both courtship modules as well as copulation. As a control the solvent for the perfumes (n-hexane) was used.

Drosophila suzukii [2] = experiment: Behavior assay: copulation between wild type 4-day-old males and perfumed 4-day-old females; type: in vivo; conditions: perfumed four-day-old females paired with wild type four-day-old males; filmed two hours; FIG. 3
Procedure: as §1, §2
as §3, with “The four-day-old flies were perfumed 24 hours prior to testing, one-day-old flies 1 hour prior to testing.” left out
Behavior assays were performed in a room with regulated temperature (21° C.) and always at the same time (10 h30). […] Subsequently these videos were analyzed for courtship behavior and copulation based on Mazzoni et al. 2013 (Plos One 8(11): e80708). The behavioral data was analyzed using a contingency table and followed by t-tests, as well as one-way ANOVA tests for the continuous data.
Behavior experiments were performed as follows. […] Subjects were scored for both courtship modules as well as copulation. […]

SMILES: CCCCCCCC/C=C\CCCCCCCCCCCCC [(Z)-9-tricosene]
- effect on occurrence of courtship (Drosophila suzukii [1]): no significant differences
- effect on occurrence of copulation (Drosophila suzukii [2]): significantly decreased

SMILES: CCCC/C=C\CCCCCCCCCCCCCCCCC [(Z)-5-tricosene]
- effect on occurrence of courtship (Drosophila suzukii [1]): no significant differences

SMILES: CCCCCCCCCCCCCCCCCCCCC [n-heneicosane]
- effect on occurrence of courtship (Drosophila suzukii [1]): no significant differences

SMILES: CCCCCCCCCCCCCCCCCCCCCCCCCCC(C)C [2-methyloctacosane]
- effect on occurrence of courtship (Drosophila suzukii [1]): no significant differences

SMILES: CCCCCC/C=C\CCCCCCCCCCCCCCC [(Z)-7-tricosene]
- effect on occurrence of courtship (Drosophila suzukii [1]): no significant differences
- effect on occurrence of copulation (Drosophila suzukii [2]): significantly decreased

SMILES: CCCCCCCCCCCCCCCCCCCCCCC [n-tricosane]
- effect on occurrence of courtship (Drosophila suzukii [1]): no significant differences
